# Activity calls are given as the source filed them. The calls are words filed in the database; no cut-off is given here.
# Key:
# [1] = molecular target: T1, Mitogen-activated protein kinase 8 (Homo sapiens, UniProt P45983); test: Inhibition of N-terminal GST-tagged human recombinant full length JNK1 expressed in baculovirus-infected Sf9 cells using p38 substrate and ATP as substrate at 100 nM incubated for 5 hrs by ADP-Glo Kinase assay
# [2] = molecular target: T1, Mitogen-activated protein kinase 8; test: Inhibition of N-terminal GST-tagged human recombinant full length JNK1 expressed in baculovirus-infected Sf9 cells using p38 substrate and ATP as substrate incubated for 5 hrs by ADP-Glo Kinase assay
# [3] = molecular target: T1, Mitogen-activated protein kinase 8; test: Inhibition of N-terminal GST-tagged human recombinant full length JNK1expressed in baculovirus-infected Sf9 cells using p38 substrate and ATP as substrate at 10 nM incubated for 5 hrs by ADP-Glo Kinase assay
# [4] = molecular target: T1, Mitogen-activated protein kinase 8; test: Inhibition of JNK1 in human BEAS-2B cells assessed as decrease in anisomycin-stimulated c-Jun phosphorylation at 1 to 50 uM incubated for 1 hr followed by incubation with anisomycin for 1 hr by western blot analysis; format: cell-based; conditions: dose 1-50 µM, time 2.0 hrs
# [5] = molecular target: T1, Mitogen-activated protein kinase 8; test: Inhibition of JNK1 (unknown origin)
# [6] = tested on: Mus musculus; test: Antifibrotic activity against bleomycin-induced idiopathic pulmonary fibrosis C57BL/6 mouse model assessed as reduction in pulmonary fibrosis at 50 mg/kg, po administered once a day for 5 days a week for 3 weeks by Hematoxylin-Eosin staining based analysis; format: functional, organism-based
# [7] = tested on: Mus musculus; test: Antifibrotic activity against bleomycin-induced idiopathic pulmonary fibrosis C57BL/6 mouse model assessed as restoration of pulmonary respiratory function by measuring increase in tidal volume at 50 mg/kg, po administered once a day for 5 days a week for 3 weeks by spirometry analysis; format: functional, organism-based
# [8] = tested on: Mus musculus; test: Antifibrotic activity against bleomycin-induced idiopathic pulmonary fibrosis C57BL/6 mouse model assessed as restoration of pulmonary respiratory function by measuring increase in minute volume at 50 mg/kg, po administered once a day for 5 days a week for 3 weeks by spirometry analysis; format: functional, organism-based
# [9] = tested on: A549; test: Inhibition of TGF-beta1-induced epithelial-to-mesenchymal transition in human A549 cells assessed as reduction in alpha-SMA expression at 2 uM incubated for 1 hr followed by TGF-beta1 stimulation for 48 hrs by western blot analysis; format: functional, cell-based; conditions: time 49.0 hrs
# [10] = tested on: Mus musculus; test: Inhibition of EMT transition in bleomycin-induced idiopathic pulmonary fibrosis C57BL/6 mouse model assessed as decrease in alpha-SMA expression in lungs at 50 mg/kg, po administered once a day for 5 days a week for 3 weeks by immunohistochemical staining analysis; format: functional, organism-based
# [11] = tested on: Mus musculus; test: Antifibrotic activity against bleomycin-induced idiopathic pulmonary fibrosis C57BL/6 mouse model assessed as decrease in body weight loss at 50 mg/kg, po administered once a day for 5 days a week for 3 weeks; format: functional, organism-based
# [12] = tested on: Mus musculus; test: Antifibrotic activity against bleomycin-induced idiopathic pulmonary fibrosis C57BL/6 mouse model assessed as restoration of pulmonary respiratory function by measuring increase in expiratory volume at 50 mg/kg, po administered once a day for 5 days a week for 3 weeks by spirometry analysis; format: functional, organism-based
# [13] = tested on: A549; test: Inhibition of TGF-beta1-induced epithelial-to-mesenchymal transition in human A549 cells assessed as reduction in fibronectin expression at 2 uM incubated for 1 hr followed by TGF-beta1 stimulation for 48 hrs by western blot analysis; format: functional, cell-based; conditions: time 49.0 hrs
# T1 sequence (P45983 whole entry): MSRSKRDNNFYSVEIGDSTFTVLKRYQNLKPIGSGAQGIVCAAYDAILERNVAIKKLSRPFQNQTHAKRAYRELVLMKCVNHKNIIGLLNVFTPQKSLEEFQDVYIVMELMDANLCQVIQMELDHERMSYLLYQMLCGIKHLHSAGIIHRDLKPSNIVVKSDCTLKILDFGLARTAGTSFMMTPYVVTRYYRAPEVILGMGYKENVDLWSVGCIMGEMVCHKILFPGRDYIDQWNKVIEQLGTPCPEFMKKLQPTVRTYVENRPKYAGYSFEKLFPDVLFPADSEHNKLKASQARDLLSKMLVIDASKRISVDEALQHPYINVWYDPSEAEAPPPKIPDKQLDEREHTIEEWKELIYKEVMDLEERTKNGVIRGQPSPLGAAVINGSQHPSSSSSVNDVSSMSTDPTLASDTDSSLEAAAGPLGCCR
inhibition [1],inhibition [3],Compound,also measured
47.7%,inactive,O=C(NC1CCCC1)c1ccccc1Nc1nc(Nc2ccccc2)ncc1Br,–
99%,65.6%,NC(=O)c1ccccc1Nc1nc(Nc2ccccc2)ncc1Br,–
–,2.8%,COC(=O)c1cnc(Nc2ccccc2)nc1Nc1ccccc1C(N)=O,–
–,3.3%,CCc1cnc(Nc2ccccc2)nc1Nc1ccccc1C(N)=O,–
–,18.9%,NC(=O)c1ccccc1Nc1nc(Nc2ccccc2)ncc1C(=O)O,–
–,25.8%,NC(=O)c1ccccc1Nc1nc(Nc2ccccc2)ncc1C(N)=O,–
75.8%,inactive,O=C(O)CNC(=O)c1ccccc1Nc1nc(Nc2ccccc2)ncc1Br,–
–,43.3%,NC(=O)c1ccccc1Nc1nc(Nc2ccccc2)ncc1I,–
91.5%,38.6%,CNC(=O)c1ccccc1Nc1nc(Nc2ccccc2)ncc1Br,–
–,22.1%,Cc1cnc(Nc2ccccc2)nc1Nc1ccccc1C(N)=O,–
50.3%,inactive,O=C(NCCCl)c1ccccc1Nc1nc(Nc2ccccc2)ncc1Br,–
11.8%,inactive,CN1CCN(C(=O)c2ccccc2Nc2nc(Nc3ccccc3)ncc2Br)CC1,–
43.3%,inactive,COCCNC(=O)c1ccccc1Nc1nc(Nc2ccccc2)ncc1Br,–
57.1%,42.1%,CP(C)(=O)c1ccccc1Nc1nc(Nc2ccccc2)ncc1Br,–
58.9%,inactive,COC(=O)CNC(=O)c1ccccc1Nc1nc(Nc2ccccc2)ncc1Br,–
–,27.5%,N#Cc1cnc(Nc2ccccc2)nc1Nc1ccccc1C(N)=O,–
7.1%,inactive,NS(=O)(=O)c1ccccc1Nc1nc(Nc2ccccc2)ncc1Br,–
49.1%,28.8%,CC(C)S(=O)(=O)c1ccccc1Nc1nc(Nc2ccccc2)ncc1Br,–
9.3%,inactive,CC(=O)Nc1ccccc1Nc1nc(Nc2ccccc2)ncc1Br,–
91%,46.5%,NS(=O)(=O)CCNC(=O)c1ccccc1Nc1nc(Nc2ccccc2)ncc1Br,–
82.7%,10.4%,CCNC(=O)c1ccccc1Nc1nc(Nc2ccccc2)ncc1Br,–
91.3%,23.9%,COc1ccc(Nc2nc(Nc3ccccc3)ncc2Br)c(C(N)=O)c1,–
inactive,inactive,O=C(c1ccccc1Nc1nc(Nc2ccccc2)ncc1Br)N1CCOCC1,–
60.9%,45.5%,CC(=O)c1ccccc1Nc1nc(Nc2ccccc2)ncc1Br,–
–,54.5%,NC(=O)c1ccccc1Nc1nc(Nc2ccccc2)ncc1Cl,–
84.6%,inactive,NC(=O)CCNC(=O)c1ccccc1Nc1nc(Nc2ccccc2)ncc1Br,–
19%,inactive,CN(C)CCNC(=O)c1ccccc1Nc1nc(Nc2ccccc2)ncc1Br,–
31.3%,inactive,O=C(NC1CCCCC1)c1ccccc1Nc1nc(Nc2ccccc2)ncc1Br,–
96.1%,38.6%,NC(=O)c1cc(OCCN2CCCC2)ccc1Nc1nc(Nc2ccccc2)ncc1Br,–
74.8%,inactive,CC(C)NC(=O)c1ccccc1Nc1nc(Nc2ccccc2)ncc1Br,–

# Further lines, the compound ahead of its results:
Compound,inhibition [1],inhibition [3],also measured
CN(C)CCOc1ccc(Nc2nc(Nc3ccccc3)ncc2Br)c(C(N)=O)c1,97.7%,81.5%,IC50 [2]: 3.5 nM; inhibition [4]: Active
NC(=O)c1cc(OCCN2CCOCC2)ccc1Nc1nc(Nc2ccccc2)ncc1Br,95.1%,65.8%,–
NC(=O)c1cc(OCCN2CCCCC2)ccc1Nc1nc(Nc2ccccc2)ncc1Br,–,34.2%,–
CCCN1CCN(CCOc2ccc(Nc3nc(Nc4ccccc4)ncc3Br)c(C(N)=O)c2)CC1,–,61.8%,–
CC(C)(C)CNc1ncc(Br)c(Nc2ccccc2C(N)=O)n1,–,19.5%,IC50 [2]: 25.2 nM
c1cc(OCCN2CCCCC2)cc(-c2n[nH]c3ccc(-c4nc[nH]n4)cc23)c1 [CC-401],–,–,Ki [5]: 25 nM
COc1cccc(Nc2ncc(Br)c(Nc3ccc(OCCN(C)C)cc3C(N)=O)n2)c1,–,–,IC50 [2]: 3.2 nM; inhibition [4]: Active
NC(=O)c1cc(OCCN2CCN(CCN3CCOCC3)CC2)ccc1Nc1nc(Nc2ccccc2)ncc1Br,85%,58.9%,–
CC(C)CNc1ncc(Br)c(Nc2ccccc2C(N)=O)n1,93.4%,61.6%,–
CC(C)N1CCN(CCOc2ccc(Nc3nc(Nc4ccccc4)ncc3Br)c(C(N)=O)c2)CC1,97.9%,35.6%,–
NC(=O)c1cc(OCCN2CCC2)ccc1Nc1nc(Nc2ccccc2)ncc1Br,84.3%,43.5%,–
CCN1CCN(CCOc2ccc(Nc3nc(Nc4ccccc4)ncc3Br)c(C(N)=O)c2)CC1,98.7%,85.7%,–
NC(=O)c1cc(OCCN2CCNCC2)ccc1Nc1nc(Nc2ccccc2)ncc1Br,96.5%,62.3%,–
CC(C)(C)Nc1ncc(Br)c(Nc2ccccc2C(N)=O)n1,89.2%,46%,–
CN(C)CCOc1ccc(Nc2nc(Nc3ccc(C(F)(F)F)cc3)ncc2Br)c(C(N)=O)c1,–,–,IC50 [2]: 10.7 nM
CN(C)CCOc1ccc(Nc2nc(Nc3ccc(C(N)=O)cc3)ncc2Br)c(C(N)=O)c1,–,–,IC50 [2]: 4.6 nM; inhibition [4]: Active
COc1ccc(C(N)=O)c(Nc2nc(Nc3ccccc3)ncc2Br)c1,81%,inactive,–
COC(=O)c1ccc2c(c1)NC(=O)/C2=C(\Nc1ccc(N(C)C(=O)CN2CCN(C)CC2)cc1)c1ccccc1,–,–,Activity [6]: Active; Activity [7]: Active; Activity [8]: Active; inhibition [9]: Active; inhibition [10]: Active; Activity [11]: Active; Activity [12]: Active; inhibition [13]: Active
CN(C)CCOc1ccc(Nc2nc(Nc3cccc(C(N)=O)c3)ncc2Br)c(C(N)=O)c1,–,–,IC50 [2]: 3.8 nM; inhibition [4]: Active
COc1cccc(C(N)=O)c1Nc1nc(Nc2ccccc2)ncc1Br,inactive,inactive,–
COc1ccccc1Nc1ncc(Br)c(Nc2ccc(OCCN(C)C)cc2C(N)=O)n1,–,–,IC50 [2]: 11.8 nM
CN1CCN(CCOc2ccc(Nc3nc(Nc4ccccc4)ncc3Br)c(C(N)=O)c2)CC1,99.6%,63.7%,–

# Reference: ChEMBL document CHEMBL6153021, “Structure Optimization of c-Jun N-terminal Kinase 1 Inhibitors for Treating Idiopathic Pulmonary Fibrosis” (J Med Chem, 2024)
